System: Septoria tritici—SEPTTR
Assay: Leaf Blotch of Wheat, in vivo whole plant, 24 Hour Protectant
Details: Zymoseptoria tritici, 24 h, 100 ppm spray, wheat, 24 hour protectant; control of fungal infection vs untreated plants; read-out: SEPTTR in vivo 1 Day Protectant

| Compound | pest or weed control at 100 ppm [%] |
| --- | --- |
| COc1cccc(Oc2ccccc2NC(=O)c2nccc(OC)c2O)c1 [Compound 428] | < 25 |
| COC(=O)C(COC(=O)C(C)c1ccccc1)NC(=O)c1nccc(OC)c1O (centres unmarked) [Compound 343] | < 25 |
| COc1cccc(Oc2cccc(NC(=O)c3nccc(OC)c3O)c2)c1 [Compound 431] | 25 to 74 |
| COc1ccnc(C(=O)N[C@H]2COC(=O)[C@H](Cc3ccccc3)[C@@H](O)[C@H](C)OC2=O)c1O [Compound 383] | < 25 |

System: Stagonospora nodorum (Leptosphaeria nodorum—LEPTNO)
Assay: In vitro fungal growth inhibition, Stagonospora nodorum (LEPTNO)
Format: cell-based
Details: Leptosphaeria; 25 ppm in growth medium; read-out: LEPTNO in vitro Growth Inhibition

| Compound | inhibition at 25 ppm [%] |
| --- | --- |
| COc1cccc(Oc2ccccc2NC(=O)c2nccc(OC)c2O)c1 [Compound 428] | < 80 |
| COC(=O)C(COC(=O)C(C)c1ccccc1)NC(=O)c1nccc(OC)c1O (centres unmarked) [Compound 343] | < 80 |
| COc1cccc(Oc2cccc(NC(=O)c3nccc(OC)c3O)c2)c1 [Compound 431] | > 80 |
| COc1ccnc(C(=O)N[C@H]2COC(=O)[C@H](Cc3ccccc3)[C@@H](O)[C@H](C)OC2=O)c1O [Compound 383] | < 80 |

System: Leptosphaeria nodorum—LEPTNO
Assay: Glume Blotch of Wheat, in vivo whole plant, 24 Hour Protectant
Details: Leptosphaeria; 100 ppm spray, wheat, 24 hour protectant; control of fungal infection vs untreated plants; read-out: LEPTNO in vivo 1 Day Protectant

| Compound | pest or weed control at 100 ppm [%] |
| --- | --- |
| COc1cccc(Oc2ccccc2NC(=O)c2nccc(OC)c2O)c1 [Compound 428] | < 25 |
| COC(=O)C(COC(=O)C(C)c1ccccc1)NC(=O)c1nccc(OC)c1O (centres unmarked) [Compound 343] | 25 to 74 |
| COc1cccc(Oc2cccc(NC(=O)c3nccc(OC)c3O)c2)c1 [Compound 431] | < 25 |
| COc1ccnc(C(=O)N[C@H]2COC(=O)[C@H](Cc3ccccc3)[C@@H](O)[C@H](C)OC2=O)c1O [Compound 383] | < 25 |

System: Erysiphe graminis—ERYSGT
Assay: Powdery Mildew of Wheat, in vivo whole plant, 24 Hour Protectant
Details: Erysiphe; 100 ppm spray, wheat, 24 hour protectant; control of fungal infection vs untreated plants; read-out: ERYSGT in vivo 1 Day Protectant

| Compound | pest or weed control at 100 ppm [%] |
| --- | --- |
| COc1cccc(Oc2ccccc2NC(=O)c2nccc(OC)c2O)c1 [Compound 428] | < 25 |
| COC(=O)C(COC(=O)C(C)c1ccccc1)NC(=O)c1nccc(OC)c1O (centres unmarked) [Compound 343] | 25 to 74 |
| COc1cccc(Oc2cccc(NC(=O)c3nccc(OC)c3O)c2)c1 [Compound 431] | < 25 |
| COc1ccnc(C(=O)N[C@H]2COC(=O)[C@H](Cc3ccccc3)[C@@H](O)[C@H](C)OC2=O)c1O [Compound 383] | < 25 |

System: Rhizoctonia solani (RHIZSO)
Assay: microbe, parasite or virus in culture
Format: cell-based
Details: Rhizoctonia solani, read-out: RHIZSO in vitro Growth Inhibition

| Compound | inhibition at 25 ppm [%] |
| --- | --- |
| COc1cccc(Oc2ccccc2NC(=O)c2nccc(OC)c2O)c1 [Compound 428] | < 80 |
| COC(=O)C(COC(=O)C(C)c1ccccc1)NC(=O)c1nccc(OC)c1O (centres unmarked) [Compound 343] | < 80 |
| COc1cccc(Oc2cccc(NC(=O)c3nccc(OC)c3O)c2)c1 [Compound 431] | < 80 |
| COc1ccnc(C(=O)N[C@H]2COC(=O)[C@H](Cc3ccccc3)[C@@H](O)[C@H](C)OC2=O)c1O [Compound 383] | < 80 |

System: Phytophthora infestans—PHYTIN
Assay: whole plant or invertebrate
Format: in vivo
Details: Phytophthora, in Solanum lycopersicum, 24 h, read-out: PHYTIN in vivo 1 Day Protectant

| Compound | pest or weed control at 100 ppm [%] |
| --- | --- |
| COc1cccc(Oc2ccccc2NC(=O)c2nccc(OC)c2O)c1 [Compound 428] | < 25 |
| COC(=O)C(COC(=O)C(C)c1ccccc1)NC(=O)c1nccc(OC)c1O (centres unmarked) [Compound 343] | < 25 |
| COc1cccc(Oc2cccc(NC(=O)c3nccc(OC)c3O)c2)c1 [Compound 431] | < 25 |
| COc1ccnc(C(=O)N[C@H]2COC(=O)[C@H](Cc3ccccc3)[C@@H](O)[C@H](C)OC2=O)c1O [Compound 383] | < 25 |

System: Phytophthora infestans (PHYTIN)
Assay: microbe, parasite or virus in culture
Format: cell-based
Details: Phytophthora infestans, read-out: PHYTIN in vitro Growth Inhibition

| Compound | inhibition at 25 ppm [%] |
| --- | --- |
| COc1cccc(Oc2ccccc2NC(=O)c2nccc(OC)c2O)c1 [Compound 428] | < 80 |
| COC(=O)C(COC(=O)C(C)c1ccccc1)NC(=O)c1nccc(OC)c1O (centres unmarked) [Compound 343] | < 80 |
| COc1cccc(Oc2cccc(NC(=O)c3nccc(OC)c3O)c2)c1 [Compound 431] | < 80 |
| COc1ccnc(C(=O)N[C@H]2COC(=O)[C@H](Cc3ccccc3)[C@@H](O)[C@H](C)OC2=O)c1O [Compound 383] | < 80 |

System: Mycosphaerella graminicola (Septoria tritici—SEPTTR)
Assay: In vitro fungal growth inhibition, Mycosphaerella graminicola (SEPTTR)
Format: cell-based
Details: Zymoseptoria tritici; 25 ppm in growth medium; read-out: SEPTTR in vitro Growth Inhibition

| Compound | inhibition at 25 ppm [%] |
| --- | --- |
| COc1cccc(Oc2ccccc2NC(=O)c2nccc(OC)c2O)c1 [Compound 428] | > 80 |
| COC(=O)C(COC(=O)C(C)c1ccccc1)NC(=O)c1nccc(OC)c1O (centres unmarked) [Compound 343] | < 80 |
| COc1cccc(Oc2cccc(NC(=O)c3nccc(OC)c3O)c2)c1 [Compound 431] | > 80 |
| COc1ccnc(C(=O)N[C@H]2COC(=O)[C@H](Cc3ccccc3)[C@@H](O)[C@H](C)OC2=O)c1O [Compound 383] | < 80 |

System: Puccinia recondita—PUCCRT
Assay: Brown Rust of Wheat, in vivo whole plant, 24 Hour Protectant
Details: Puccinia; 100 ppm spray, wheat, 24 hour protectant; control of fungal infection vs untreated plants; read-out: PUCCRT in vivo 1 Day Protectant

| Compound | pest or weed control at 100 ppm [%] |
| --- | --- |
| COc1cccc(Oc2ccccc2NC(=O)c2nccc(OC)c2O)c1 [Compound 428] | < 25 |
| COC(=O)C(COC(=O)C(C)c1ccccc1)NC(=O)c1nccc(OC)c1O (centres unmarked) [Compound 343] | < 25 |
| COc1cccc(Oc2cccc(NC(=O)c3nccc(OC)c3O)c2)c1 [Compound 431] | < 25 |
| COc1ccnc(C(=O)N[C@H]2COC(=O)[C@H](Cc3ccccc3)[C@@H](O)[C@H](C)OC2=O)c1O [Compound 383] | 25 to 74 |

System: Ustilago maydis (USTIMA)
Assay: microbe, parasite or virus in culture
Format: cell-based
Details: Mycosarcoma maydis, read-out: USTIMA in vitro Growth Inhibition

| Compound | inhibition at 25 ppm [%] |
| --- | --- |
| COc1cccc(Oc2ccccc2NC(=O)c2nccc(OC)c2O)c1 [Compound 428] | < 80 |
| COC(=O)C(COC(=O)C(C)c1ccccc1)NC(=O)c1nccc(OC)c1O (centres unmarked) [Compound 343] | < 80 |
| COc1cccc(Oc2cccc(NC(=O)c3nccc(OC)c3O)c2)c1 [Compound 431] | < 80 |
| COc1ccnc(C(=O)N[C@H]2COC(=O)[C@H](Cc3ccccc3)[C@@H](O)[C@H](C)OC2=O)c1O [Compound 383] | < 80 |

System: Magnaporthe grisea (Pyricularia oryzae—PYRIOR)
Assay: microbe, parasite or virus in culture
Format: cell-based
Details: Pyricularia oryzae, read-out: PYRIOR in vitro Growth Inhibition

| Compound | inhibition at 25 ppm [%] |
| --- | --- |
| COc1cccc(Oc2ccccc2NC(=O)c2nccc(OC)c2O)c1 [Compound 428] | > 80 |
| COC(=O)C(COC(=O)C(C)c1ccccc1)NC(=O)c1nccc(OC)c1O (centres unmarked) [Compound 343] | < 80 |
| COc1cccc(Oc2cccc(NC(=O)c3nccc(OC)c3O)c2)c1 [Compound 431] | < 80 |
| COc1ccnc(C(=O)N[C@H]2COC(=O)[C@H](Cc3ccccc3)[C@@H](O)[C@H](C)OC2=O)c1O [Compound 383] | < 80 |

— patent publication US6706740B2, “Fungicidal heterocyclic aromatic amides and their compositions, methods of use and preparation” (Dow AgroSciences LLC, priority 1999, dated 2004)
